System: kokumi/umami taste
Experiment: Evaluation of alkylpyridines: taste panel of 8 trained panelists, samples in 0.3% aqueous NaCl
Format: in vivo
Conditions: 10 ppm in 0.3% aqueous NaCl; scale 0 (no effect) to 10 (extremely strong kokumi/umami effect)
Protocol: Alkylpyridines shown in the following table were prepared by firstly being diluted into propylene glycol solvent in order to provide a 10% solution of the alkylpyridine. Each solution was then diluted using a 0.3% aqueous solution of NaCl, heated if necessary to achieve better dissolution, to a concentration of between 10 ppm and 30 ppm of the alkylpyridine. The samples were then stored at ambient temperature.
A panel consisting of 8 trained panelists evaluated the samples for taste properties on a scale of 0 to 10 where 0 denoted no kokumi/umami effect and 10 denoted extremely strong kokumi/umami effect.

Row | SMILES | Kokumi/Umami taste intensity
1 | CCCCCc1cc(C)ccn1 [Compound of ex. 6, 4-methyl-2-pentylpyridine] | 0
2 | CCCCCCCCCc1ccccn1 [Compound of ex. 3, 2-nonylpyridine] | 1
3 | CCCCCCCCCCCCc1ccccn1 [Compound of ex. 5, 2-dodecylpyridine] | 0
4 | CCCCCCCCCCCc1ccccn1 [Compound of ex. 4, 2-undecylpyridine] | 0
5 | CCCc1ccccn1 [2-Propylpyridine, reference compound] | 0
6 | CCCCCCCc1ccccn1 [Compound of ex. 1, 2-heptylpyridine] | 7
7 | CCc1ccccn1 [2-Ethylpyridine, reference compound] | 0
8 | CCCCCCc1ccccn1 [2-Hexylpyridine] | 7
9 | CCCCCCCCc1ccccn1 [Compound of ex. 2, 2-octylpyridine] | 2

Same assay, conditions: 20 ppm in 0.3% aqueous NaCl; scale 0 (no effect) to 10 (extremely strong kokumi/umami effect)

Row | SMILES | Kokumi/Umami taste intensity
10 | Cc1ccccn1 [2-picoline, reference compound] | 0

Same assay, conditions: 30 ppm in 0.3% aqueous NaCl; scale 0 (no effect) to 10 (extremely strong kokumi/umami effect)

Row | SMILES | Kokumi/Umami taste intensity
11 | c1ccncc1 [Pyridine, reference compound] | 0
